Test results reported in article PMC5431883, “Enhancing Specific Disruption of Intracellular Protein Complexes by Hydrocarbon Stapled Peptides Using Lipid Based Delivery” (Scientific Reports, 2017).
Positions of bridges follow the written chain, without caps; N, C: chain ends. Non-standard residues stand in square brackets, D forms with d. Residues, ends and D or L forms follow the SMILES beside them. *: point of attachment. Biotin = O=C1N[C@H]2[C@H](CS[C@H]2CCCCC(=O)*)N1; R8 = C=CCCCCCC[C@@](C)(N)C(=O)O; Cba = N[C@@H](CC1CCC1)C(=O)O; S5 = C=CCCC[C@](C)(N)C(=O)O; Ahx = NCCCCCC(=O)O

What follows are compounds tested against T1, Mdm2 (1-125) (Homo sapiens, UniProt Q00987) (assay: Mdm2 competitive fluorescence anisotropy assay (FAM-labeled 12/1 peptide displacement)). Settings: read-out: Kd (apparent dissociation constant, competitive fluorescence anisotropy).
T1 construct: Purified MDM2 (1-125) protein was titrated against 50 nM carboxyfluorescein (FAM)-labeled; GST (N, cleaved yes); made in house; host or cells: E. coli BL21 DE3 (pGEX-6P-1)
T1 sequence (Q00987 1-125): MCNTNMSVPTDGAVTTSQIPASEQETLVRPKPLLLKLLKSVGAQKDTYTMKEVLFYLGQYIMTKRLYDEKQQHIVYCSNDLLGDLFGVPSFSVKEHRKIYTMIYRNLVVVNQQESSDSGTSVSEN
Type: binding
Method: analyzed with SDS page gel and concentrated using a Centricon (3.5 kDa MWCO) concentrator, Millipore. Mdm2 protein samples were then dialyzed into a buffer solution containing 20mM Bis-Tris, pH 6.5, 0.05M NaCl with 1mM DTT and loaded onto a monoS column pre-equilibrated in buffer A (20mM Bis-Tris, pH 6.5, 1mM DTT). The column was then washed in 6 column volumes of buffer A and bound protein was eluted with a linear gradient of 1M NaCL over 25 column volumes. Protein fractions were analyzed with SDS page gel and concentrated using a Centricon (3.5 kDa MWCO) concentrator, Millipore.
Protein concentration was determined using A280 using an extinction coefficients […]
Mdm2 Competitive Fluorescence Anisotropy Assay and Kd Determination […]
Dissociation constants for titration of MDM2 against […]
equation shown below:25,26
[P] is the protein concentration (MDM2), [L] is the labeled peptide concentration, r is the anisotropy measured, r0 is the anisotropy of the free peptide, rb is the anisotropy of the MDM2– FAM-labeled peptide complex, Kd is the dissociation constant, [L]t is the total FAM labeled
(1 picture or pasted object on this page, not shown here) […]
peptide concentration, and [P]t is the total MDM2 concentration. […]
respective competing ligands in subsequent competition assays.
Apparent Kd values were determined for a variety of molecules via competitive fluorescence anisotropy experiments. Titrations were carried out with the concentration of MDM2 held constant […]
The competing molecules were then titrated against the complex of the FAM-labeled peptide and protein. Apparent Kd values were determined by fitting the experimental data to the equations shown below:26,27 […]
[L]st and [L]t denote labeled ligand and total unlabeled ligand input concentrations, respectively.
Kd2 is the dissociation constant of the interaction between the unlabeled ligand and the protein. In […]
all competitive types of experiments, it is assumed that [P]t > [L]st, otherwise considerable amounts of free labeled ligand would always be present and would interfere with measurements. Kd1 is the […]
experimentally determined as described in the previous paragraph. The FAM-labeled peptide was dissolved in dimethyl sulfoxide (DMSO) at 1 mM and diluted into experimental buffer. Readings were carried out with an Envision Multilabel Reader (PerkinElmer). Experiments were carried out […]
Tween 20 buffer. All titrations were carried out in triplicate. Curve-fitting was carried out using […]
Negative control titrations of the ligands under investigation were also carried out with the fluorescently labeled peptide (in the absence of MDM2) to ensure no interactions were occurring between the ligands and FAM-labeled peptide. […]
which would otherwise indicate an unintended interaction between the ligand and the FAM-labeled peptide to be displaced from the MDM2 binding site. […]
Note: 250 nM MDM2.

| SMILES | Kd |
| --- | --- |
| CC(=O)N[C@H](C(=O)N[C@@H](CO)C(=O)N[C@@H](Cc1ccccc1)C(=O)N[C@]1(C)CCCCCCC=CCCC[C@@](C)(C(=O)N[C@@H](CCC(=O)O)C(=O)N[C@@H](CC(N)=O)C(=O)N[C@@H](Cc2ccccc2)C(N)=O)NC(=O)[C@H](CC(C)C)NC(=O)[C@H](CC(C)C)NC(=O)[C@H](C)NC(=O)[C@H](Cc2c[nH]c3ccccc23)NC(=O)[C@H](Cc2ccc(O)cc2)NC(=O)[C@H](CCC(=O)O)NC1=O)[C@@H](C)O [VIP-65] | 19.7 ± 1.3 nM |
| CC(=O)N[C@H](C(=O)N[C@@H](CO)C(=O)N[C@@H](Cc1ccccc1)C(=O)N[C@]1(C)CCCCCCC=CCCC[C@@](C)(C(=O)N[C@@H](CCC(=O)O)C(=O)N[C@@H](CC(N)=O)C(=O)N[C@@H](Cc2ccc(O)cc2)C(N)=O)NC(=O)[C@H](CC(C)C)NC(=O)[C@H](CC(C)C)NC(=O)[C@H](C)NC(=O)[C@H](Cc2c[nH]c3ccccc23)NC(=O)[C@H](Cc2ccc(O)cc2)NC(=O)[C@H](CCC(=O)O)NC1=O)[C@@H](C)O [VIP-66] | 23.1 ± 1.5 nM |
| CC(C)C[C@@H]1NC(=O)[C@H](C)NC(=O)[C@H](Cc2c[nH]c3ccccc23)NC(=O)[C@H](Cc2ccc(O)cc2)NC(=O)[C@H](CCC(=O)O)NC(=O)[C@](C)(NC(=O)[C@H](Cc2ccccc2)NC(=O)[C@H](CO)NC(=O)[C@@H](NC(=O)CCCCCNC(=O)CCCC[C@@H]2SC[C@@H]3NC(=O)N[C@@H]32)[C@@H](C)O)CCCCCCC=CCCC[C@@](C)(C(N)=O)NC(=O)[C@H](CC(C)C)NC1=O [VIP-67] | 100 ± 7.7 nM |
| CC(C)C[C@@H]1NC(=O)[C@H](C)NC(=O)[C@H](Cc2c[nH]c3ccccc23)NC(=O)[C@H](Cc2ccc(O)cc2)NC(=O)[C@H](CCC(=O)O)NC(=O)[C@](C)(NC(=O)[C@H](Cc2ccccc2)NC(=O)[C@H](CO)NC(=O)[C@@H](NC(=O)CCCCCNC(=O)CCCC[C@@H]2SC[C@@H]3NC(=O)N[C@@H]32)[C@@H](C)O)CCCCCCC=CCCC[C@@](C)(C(N)=O)NC(=O)[C@H](CC2CCC2)NC1=O [VIP-68] ({Biotin-Ahx}-TSF[R8]EYWAL[Cba][S5]-NH2; staple 4-11) | 41.6 ± 1.7 nM |
| CC(=O)N[C@H](C(=O)N[C@@H](CO)C(=O)N[C@@H](Cc1ccccc1)C(=O)N[C@]1(C)CCCCCCC=CCCC[C@@](C)(C(=O)N[C@@H](CCC(=O)O)C(N)=O)NC(=O)[C@H](CC2CCC2)NC(=O)[C@H](CC(C)C)NC(=O)[C@H](C)NC(=O)[C@H](Cc2c[nH]c3ccccc23)NC(=O)[C@H](Cc2ccc(O)cc2)NC(=O)[C@H](CCC(=O)O)NC1=O)[C@@H](C)O [VIP-71] (Ac-TSF[R8]EYWAL[Cba][S5]E-NH2; staple 4-11) | 14 ± 1.1 nM |
| CC(=O)N[C@H](C(=O)N[C@@H](CO)C(=O)N[C@@H](Cc1ccccc1)C(=O)NC(C)(C)C(=O)N[C@@H](CCC(=O)O)C(=O)N[C@@H](Cc1ccc(O)cc1)C(=O)N[C@@H](Cc1c[nH]c2ccccc12)C(=O)N[C@@H](C)C(=O)N[C@@H](CC(C)C)C(=O)N[C@@H](CC(C)C)C(=O)NC(C)(C)C(=O)N[C@@H](CCC(=O)O)C(N)=O)[C@@H](C)O [VIP-76] | 35.9 ± 2.3 nM |
| CC(=O)N[C@@H](CCCCN)C(=O)N[C@@H](CCCCN)C(=O)NCCCCCC(=O)N[C@H](C(=O)N[C@@H](CO)C(=O)N[C@@H](Cc1ccccc1)C(=O)N[C@]1(C)CCCCCCC=CCCC[C@@](C)(C(N)=O)NC(=O)[C@H](CC(C)C)NC(=O)[C@H](CC(C)C)NC(=O)[C@H](C)NC(=O)[C@H](Cc2c[nH]c3ccccc23)NC(=O)[C@H](Cc2ccc(O)cc2)NC(=O)[C@H](CCC(=O)O)NC1=O)[C@@H](C)O [VIP-77] | 46.8 ± 3.9 nM |
| CC(=O)N[C@@H](CCCNC(=N)N)C(=O)N[C@@H](CCCNC(=N)N)C(=O)N[C@@H](CCCNC(=N)N)C(=O)NCCCCCC(=O)N[C@H](C(=O)N[C@@H](CO)C(=O)N[C@@H](Cc1ccccc1)C(=O)N[C@]1(C)CCCCCCC=CCCC[C@@](C)(C(N)=O)NC(=O)[C@H](CC(C)C)NC(=O)[C@H](CC(C)C)NC(=O)[C@H](C)NC(=O)[C@H](Cc2c[nH]c3ccccc23)NC(=O)[C@H](Cc2ccc(O)cc2)NC(=O)[C@H](CCC(=O)O)NC1=O)[C@@H](C)O [VIP-78] | 78.8 ± 8.2 nM |
| CC(=O)N[C@@H](Cc1c[nH]cn1)C(=O)N[C@@H](Cc1c[nH]cn1)C(=O)N[C@@H](Cc1c[nH]cn1)C(=O)NCCCCCC(=O)N[C@H](C(=O)N[C@@H](CO)C(=O)N[C@@H](Cc1ccccc1)C(=O)N[C@]1(C)CCCCCCC=CCCC[C@@](C)(C(N)=O)NC(=O)[C@H](CC(C)C)NC(=O)[C@H](CC(C)C)NC(=O)[C@H](C)NC(=O)[C@H](Cc2c[nH]c3ccccc23)NC(=O)[C@H](Cc2ccc(O)cc2)NC(=O)[C@H](CCC(=O)O)NC1=O)[C@@H](C)O [VIP-79] | 130 ± 11.7 nM |
| CC(=O)N[C@@H](CCCNC(=N)N)C(=O)N[C@@H](CCCNC(=N)N)C(=O)N[C@@H](CCCNC(=N)N)C(=O)NCCCCCC(=O)N[C@H](C(=O)N[C@@H](CO)C(=O)N[C@@H](Cc1ccccc1)C(=O)N[C@]1(C)CCCCCCC=CCCC[C@@](C)(C(=O)N[C@@H](CCC(=O)O)C(=O)N[C@@H](CC(N)=O)C(=O)N[C@@H](Cc2ccccc2)C(N)=O)NC(=O)[C@H](CC(C)C)NC(=O)[C@H](CC(C)C)NC(=O)[C@H](C)NC(=O)[C@H](Cc2c[nH]c3ccccc23)NC(=O)[C@H](Cc2ccc(O)cc2)NC(=O)[C@H](CCC(=O)O)NC1=O)[C@@H](C)O [VIP-80] (Ac-RRR[Ahx]TSF[R8]EYWALL[S5]ENF-NH2; staple 8-15) | 45 ± 4.1 nM |
| CC(=O)N[C@@H](Cc1c[nH]cn1)C(=O)N[C@@H](Cc1c[nH]cn1)C(=O)N[C@@H](Cc1c[nH]cn1)C(=O)NCCCCCC(=O)N[C@H](C(=O)N[C@@H](CO)C(=O)N[C@@H](Cc1ccccc1)C(=O)N[C@]1(C)CCCCCCC=CCCC[C@@](C)(C(=O)N[C@@H](CCC(=O)O)C(=O)N[C@@H](CC(N)=O)C(=O)N[C@@H](Cc2ccccc2)C(N)=O)NC(=O)[C@H](CC(C)C)NC(=O)[C@H](CC(C)C)NC(=O)[C@H](C)NC(=O)[C@H](Cc2c[nH]c3ccccc23)NC(=O)[C@H](Cc2ccc(O)cc2)NC(=O)[C@H](CCC(=O)O)NC1=O)[C@@H](C)O [VIP-81] (Ac-HHH[Ahx]TSF[R8]EYWALL[S5]ENF-NH2; staple 8-15) | 61.2 ± 6.5 nM |
| CC(C)C[C@@H]1NC(=O)[C@H](C)NC(=O)[C@H](Cc2c[nH]c3ccccc23)NC(=O)[C@H](Cc2ccc(O)cc2)NC(=O)[C@H](CCC(=O)O)NC(=O)[C@](C)(NC(=O)[C@H](Cc2ccccc2)NC(=O)[C@H](CO)NC(=O)[C@@H](NC(=O)CCCCCNC(=O)CCCC[C@@H]2SC[C@@H]3NC(=O)N[C@@H]32)[C@@H](C)O)CCCCCCC=CCCC[C@@](C)(C(=O)N[C@@H](CCC(=O)O)C(=O)N[C@@H](CC(N)=O)C(=O)N[C@@H](Cc2ccccc2)C(N)=O)NC(=O)[C@H](CC(C)C)NC1=O [VIP-83] | 24.6 ± 2.2 nM |
| CC(=O)N[C@@H](CCCNC(=N)N)C(=O)N[C@@H](CCCNC(=N)N)C(=O)N[C@@H](CCCNC(=N)N)C(=O)NCCCCCC(=O)N[C@H](C(=O)N[C@@H](CO)C(=O)N[C@@H](Cc1ccccc1)C(=O)N[C@]1(C)CCCCCCC=CCCC[C@@](C)(C(=O)N[C@@H](CCC(=O)O)C(=O)N[C@@H](CC(N)=O)C(=O)N[C@@H](Cc2ccc(O)cc2)C(N)=O)NC(=O)[C@H](CC(C)C)NC(=O)[C@H](CC(C)C)NC(=O)[C@H](C)NC(=O)[C@H](Cc2c[nH]c3ccccc23)NC(=O)[C@H](Cc2ccc(O)cc2)NC(=O)[C@H](CCC(=O)O)NC1=O)[C@@H](C)O [VIP-85] (Ac-RRR[Ahx]TSF[R8]EYWALL[S5]ENY-NH2; staple 8-15) | 44.9 ± 3.5 nM |
